Test results taken from ChEMBL document CHEMBL3286379, “Design and synthesis of pyrimidine molecules endowed with thiazolidin-4-one as new anticancer agents” (Eur J Med Chem, 2014).

Experiments:
Rattus norvegicus [1] = assay: Hepatotoxicity in rat assessed as SGOT level at 0.12 mg/kg, po after 12 days (reference value: 140.23 +/- 1.39 U/mL); assay type: toxicity, organism-based; design: dose 0.12 mg/kg, route oral; conditions: in vivo, 288 h
Rattus norvegicus [2] = assay: Hepatotoxicity in rat assessed as SGPT level at 0.12 mg/kg, po after 12 days (reference value: 31.17 +/- 0.39 U/mL); assay type: toxicity, organism-based; design: dose 0.12 mg/kg, route oral; conditions: in vivo, 288 h

In the case of O=c1[nH]cc(F)c(=O)[nH]1 [FLUOROURACIL], the Activity (Rattus norvegicus [1]) is reported as 151.21 U/ml and the Activity (Rattus norvegicus [2]) is reported as 32.75 U/ml.
